# Patent US9120805B2, “Substituted pyrrolo[1,2-A]pyrazin-1-ones and pyrazolo[1,5-A]pyrazin-4-ones as inhibitors of tankyrase and poly(ADP-ribose)polymerase activity” (Merck Patent GmbH, priority 2012, dated 2015)
# Key:
# [1] = target: T1, GST-tagged Tankyrase-2 (873-1166 aa) (Homo sapiens, UniProt Q9H2K2); experiment: Tankyrase 2 autoparsylation assay (HTRF enzyme assay); assay type: biochemical
# T1 construct: GST-tagged Tankyrase-2 (873-1166 aa)
# Protocol: (§1) Biochemical Activity Testing of Tankyrase 1 and 2: Autoparsylation Assay
# (§2) The autoparsylation assay is run in two steps: the enzymatic reaction in which GST-tagged Tankyrase-1, resp Tankyrase-2 transferred biotinylated ADP-ribose to itself from biotinylated NAD as co-substrate and the detection reaction where a time resolved FRET between cryptate labelled anti-GST bound to the GST tag of the enzyme and Xlent® labelled-streptavidin bound the biotin-parsylation residue is analysed. The autoparsylation activity was detectable directly via the increase in HTRF signal.
# (§3) The autoparsylation assay is performed as 384-well HTRF® (Cisbio, Codolet, France) assay format in Greiner low volume nb 384-well microtiter plates and is used for high throughput screen. 250 nM GST-tagged Tankyrase-1 (1023-1327 aa), respectively about 250 nM GST-tagged Tankyrase-2 (873-1166 aa) and 5 μM bio-NAD (Biolog, Life science Inst., Bremen, Germany) as co-substrate are incubated in a total volume of 5 μl (50 mM HEPES, 4 mM Mg-chloride, 0.05% Pluronic F-68, 1.4 mM DTT, 0.5% DMSO, pH 7.7) in the absence or presence of the test compound (10 dilution concentrations) for 90 min at 30° C. The reaction is stopped by the addition of 1 μl 50 mM EDTA solution. 2 μl of the detection solution (1.6 μM SA-Xlent® (Cisbio, Codolet, France), 7.4 nM Anti-GST-K® (Eu-labelled anti-GST, Cisbio, Codolet, France) in 50 mM HEPES, 800 mM KF, 0.1% BSA, 20 mM EDTA, 0.1% CHAPS, pH 7.0) are added. After 1 h incubation at room temperature the HTRF is measured with an Envision multimode reader (Perkin Elmer LAS Germany GmbH) at excitation wavelength 340 nm (laser mode) and emission wavelengths 615 nm and 665 nm. The ratio of the emission signals is determined. The full value used is the inhibitor-free reaction. The pharmacological zero value used is XAV-939 (Tocris) in a final concentration of 5 μM. The inhibitory values (IC50) are determined using either the program Symyx Assay Explorer® or Condosseo® from GeneData.
# [2] = test system: tankyrase 1/2; experiment: Cellular inhibition of Tankyrase: increase of Axin2 level in DLD1 cells (Luminex); assay type: cell-based; details: 24 hours, read-out: EC50 tankyrase 1/2 (cell assay)
# Protocol: Measurement of Cellular Inhibition of Tankyrase
# Since Tankyrases have been described to modulate cellular level of Axin2 (Huang et al., 2009; Nature) the increase of Axin2 level is used as read-out for determination of cellular inhibition of Tankyrases in a Luminex based assay.
# Cells of the colon carcinoma cell line DLD1 are plated in 96 well plates with 1.5×10^4 cells per well. Next day, cells are treated with a serial dilution of test compound in seven steps as triplicates with a final DMSO concentration of 0.3%. After 24 hours, cells are lysed in lysis buffer (20 mM Tris/HCl pH 8.0, 150 mM NaCl, 1% NP40, 10% Glycerol) and lysates are cleared by centrifugation through a 96 well filter plate (0.65 μm). Axin2 protein is isolated from cell lysates by incubation with a monoclonal anti-Axin2 antibody (R&D Systems #MAB6078) that is bound to fluorescent carboxybeads. Then, bound Axin2 is specifically detected with a polyclonal anti-Axin2 antibody (Cell Signaling #2151) and an appropriate PE-fluorescent secondary antibody. The amount of isolated Axin2 protein is determined in a Luminex^200 machine (Luminex Corporation) according to the manufacturer's instruction by counting 100 events per well. Inhibition of Tankyrase by test compounds results in higher levels of Axin2 which directly correlates with an increase of detectable fluorescence. As controls cells are treated with solvent alone (neutral control) and with a Tankyrase reference inhibitor IWR-2 (3E-06 M) which refers as control for maximum increase of Axin2. For analysis, the obtained data are normalized against the untreated solvent control and fitted for determination of the EC50 values using the Assay Explorer software (Accelrys).
# [3] = target: T2, GST-tagged Tankyrase-1 (1023-1327 aa) (Homo sapiens, UniProt O95271); experiment: Tankyrase 1 autoparsylation assay (HTRF enzyme assay); assay type: biochemical
# T2 construct: GST-tagged Tankyrase-1 (1023-1327 aa)
# Protocol: as §1, §2, §3
# T2 sequence (O95271 1023-1327): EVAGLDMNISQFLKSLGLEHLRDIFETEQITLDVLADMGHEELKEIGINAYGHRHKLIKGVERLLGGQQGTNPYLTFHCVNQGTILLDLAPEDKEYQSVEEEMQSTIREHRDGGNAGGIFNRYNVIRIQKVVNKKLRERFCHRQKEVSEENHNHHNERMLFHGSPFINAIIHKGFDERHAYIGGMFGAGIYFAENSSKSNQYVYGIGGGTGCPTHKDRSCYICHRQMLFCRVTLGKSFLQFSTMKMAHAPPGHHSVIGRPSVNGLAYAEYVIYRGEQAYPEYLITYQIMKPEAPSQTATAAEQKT
# T1 sequence (Q9H2K2 873-1166): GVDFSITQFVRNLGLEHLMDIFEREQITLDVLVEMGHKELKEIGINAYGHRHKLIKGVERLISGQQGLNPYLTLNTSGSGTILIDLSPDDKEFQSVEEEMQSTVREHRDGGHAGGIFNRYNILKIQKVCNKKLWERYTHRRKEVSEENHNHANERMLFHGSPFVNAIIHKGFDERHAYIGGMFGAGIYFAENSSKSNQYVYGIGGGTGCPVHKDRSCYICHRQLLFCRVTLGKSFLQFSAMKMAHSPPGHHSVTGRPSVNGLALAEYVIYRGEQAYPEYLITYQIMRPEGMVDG
compound,measurement,setting,value
"C=C(CCCO)c1ccc(-c2cn3cc(F)cc3c(=O)[nH]2)cc1 (single isomer, unassigned) [Compound A74, 7-fluoro-3-[4-(4-hydroxy-1-methylene-butyl)-phenyl]-2H-pyrrolo[1,2-a]pyrazin-1-one]",IC50,[1],300 to 3000 nM
same,EC50,[2],300 to 3000 nM
same,IC50,[3],< 300 nM
"O=c1[nH]c(-c2ccccc2)cn2cccc12 [Compound A2, 3-phenyl-2H-pyrrolo[1,2-a]pyrazin-1-one]",IC50,[1],300 to 3000 nM
same,IC50,[3],300 to 3000 nM
"CC1(C)CCC(C)(C)c2cc(-c3cn4cccc4c(=O)[nH]3)ccc21 [Compound A5, 3-(5,5,8,8-tetramethyl-5,6,7,8-tetrahydro-naphthalen-2-yl)-2H-pyrrolo[1,2-a]pyrazin-1-one]",IC50,[3],3000 to 50000 nM
"Cn1cc(-c2cn3cccc3c(=O)[nH]2)cn1 [Compound A14, 3-(1-methyl-1H-pyrazol-4-yl)-2H-pyrrolo[1,2-a]pyrazin-1-one]",IC50,[1],300 to 3000 nM
same,IC50,[3],300 to 3000 nM
"O=c1[nH]c(-c2ccc(OC(F)(F)F)cc2)cn2nccc12 [Compound A16, 6-(4-trifluoromethoxy-phenyl)-5H-pyrazolo[1,5-a]pyrazin-4-one]",IC50,[1],3000 to 50000 nM
same,IC50,[3],300 to 3000 nM
"O=c1[nH]c(-c2ccc(N3CCCC3)cc2)cn2nccc12 [Compound A17, 6-(4-pyrrolidin-1-yl-phenyl)-5H-pyrazolo[1,5-a]pyrazin-4-one]",IC50,[1],< 300 nM
same,EC50,[2],300 to 3000 nM
same,IC50,[3],< 300 nM
"O=c1[nH]c(-c2ccc(N3CCCC3)cc2)cn2nc(CO)cc12 [Compound A19, 2-hydroxymethyl-6-(4-pyrrolidin-1-yl-phenyl)-5H-pyrazolo[1,5-a]pyrazin-4-one]",IC50,[1],300 to 3000 nM
same,EC50,[2],300 to 3000 nM
same,IC50,[3],< 300 nM
"CC(C)Oc1ccc(-c2cn3nc(CO)cc3c(=O)[nH]2)cc1 [Compound A20, 2-hydroxymethyl-6-(4-isopropoxy-phenyl)-5H-pyrazolo[1,5-a]pyrazin-4-one]",IC50,[1],3000 to 50000 nM
same,IC50,[3],300 to 3000 nM
"Cc1nc(-c2ccc(-c3cn4nc(CO)cc4c(=O)[nH]3)cc2)no1 [Compound A21, 2-hydroxymethyl-6-[4-(5-methyl-[1,2,4]oxadiazol-3-yl)-phenyl]-5H-pyrazolo[1,5-a]pyrazin-4-one]",IC50,[1],3000 to 50000 nM
same,IC50,[3],300 to 3000 nM
"CC(C)n1cc(-c2cn3nc(CO)cc3c(=O)[nH]2)cn1 [Compound A22, 2-hydroxymethyl-6-(1-isopropyl-1H-pyrazol-4-yl)-5H-pyrazolo[1,5-a]pyrazin-4-one]",IC50,[3],3000 to 50000 nM
"O=c1[nH]c(-c2ccc(Br)cc2)cn2cccc12 [Compound A24, 3-(4-bromo-phenyl)-2H-pyrrolo[1,2-a]pyrazin-1-one]",IC50,[1],< 300 nM
same,IC50,[3],< 300 nM
"COCCn1cc(-c2ccc(-c3cn4cccc4c(=O)[nH]3)cc2)cn1 [Compound A26, 3-{4-[1-(2-methoxy-ethyl)-1H-pyrazol-4-yl]-phenyl}-2H-pyrrolo[1,2-a]pyrazin-1-one]",IC50,[1],< 300 nM
same,EC50,[2],300 to 3000 nM
same,IC50,[3],< 300 nM
"O=c1[nH]c(-c2ccc(-c3cnn(CCN4CCCC4)c3)cc2)cn2cccc12 [Compound A27, 3-{4-[1-(2-pyrrolidin-1-yl-ethyl)-1H-pyrazol-4-yl]-phenyl}-2H-pyrrolo[1,2-a]pyrazin-1-one]",IC50,[1],< 300 nM
same,EC50,[2],300 to 3000 nM
same,IC50,[3],< 300 nM
"COC(=O)c1ccc(-c2cn3cccc3c(=O)[nH]2)cc1 [Compound A28, 4-(1-oxo-1,2-dihydro-pyrrolo[1,2-a]pyrazin-3-yl)-benzoic acid methyl ester]",IC50,[1],300 to 3000 nM
same,EC50,[2],300 to 3000 nM
same,IC50,[3],< 300 nM
"Cc1cc2c(=O)[nH]c(-c3ccc(C(C)(C)C)cc3)cn2n1 [Compound A30, 6-(4-tert-butyl-phenyl)-2-methyl-5H-pyrazolo[1,5-a]pyrazin-4-one]",IC50,[1],300 to 3000 nM
same,EC50,[2],< 300 nM
same,IC50,[3],< 300 nM
"O=c1[nH]c(-c2ccc(-c3cnn(CCOC4CCCCO4)c3)cc2)cn2cccc12 (stereo not drawn) [Compound A31, 3-(4-{1-[2-(tetrahydro-pyran-2-yloxy)-ethyl]-1H-pyrazol-4-yl}-phenyl)-2H-pyrrolo[1,2-a]pyrazin-1-one]",IC50,[1],300 to 3000 nM
same,IC50,[3],< 300 nM
"O=c1[nH]c(-c2ccc(-c3cnn(CCO)c3)cc2)cn2cccc12 [Compound A32, 3-{4-[1-(2-hydroxy-ethyl)-1H-pyrazol-4-yl]-phenyl}-2H-pyrrolo[1,2-a]pyrazin-1-one]",IC50,[1],< 300 nM
same,EC50,[2],300 to 3000 nM
same,IC50,[3],< 300 nM
"O=c1[nH]c(-c2ccc(OC(F)(F)F)cc2)cn2nc(CCl)cc12 [Compound A33, 2-chloromethyl-6-(4-trifluoromethoxy-phenyl)-5H-pyrazolo[1,5-a]pyrazin-4-one]",IC50,[3],300 to 3000 nM
"Cc1cc2c(=O)[nH]c(-c3ccc(OC(F)(F)F)cc3)cn2n1 [Compound A34, 2-methyl-6-(4-trifluoromethoxy-phenyl)-5H-pyrazolo[1,5-a]pyrazin-4-one]",IC50,[1],300 to 3000 nM
same,EC50,[2],300 to 3000 nM
same,IC50,[3],< 300 nM
"O=c1[nH]c(-c2ccc(Br)cc2)cn2nc(CBr)cc12 [Compound A36, 2-bromomethyl-6-(4-bromo-phenyl)-5H-pyrazolo[1,5-a]pyrazin-4-one]",IC50,[1],3000 to 50000 nM
same,IC50,[3],300 to 3000 nM
"Cc1cc2c(=O)[nH]c(-c3cnn(C(C)(C)C)c3)cn2n1 [Compound A52, 2-methyl-6-(1-tert-butyl-1H-pyrazol-4-yl)-5H-pyrazolo[1,5-a]pyrazin-4-one]",IC50,[1],3000 to 50000 nM
same,IC50,[3],300 to 3000 nM
"CC(C)(C)c1ccc(-c2cn3nc(C(F)(F)F)cc3c(=O)[nH]2)cc1 [Compound A55, 6-(4-tert-butyl-phenyl)-2-trifluoromethyl-5H-pyrazolo[1,5-a]pyrazin-4-one]",IC50,[3],< 300 nM
"O=c1[nH]c(-c2ccc(Br)cc2)cn2cc(F)cc12 [Compound A58, 3-(4-bromo-phenyl)-7-fluoro-2H-pyrrolo[1,2-a]pyrazin-1-one]",IC50,[1],< 300 nM
same,IC50,[3],< 300 nM
"CC(C)(O)c1ccc(-c2cn3cc(C#N)cc3c(=O)[nH]2)cc1 [Compound A62, 3-[4-(1-hydroxy-1-methyl-ethyl)-phenyl]-1-oxo-1,2-dihydro-pyrrolo[1,2-a]pyrazine-7-carbonitrile]",EC50,[2],3000 to 50000 nM
"CC(C)(C)c1ccc(-c2cn3nc(CF)cc3c(=O)[nH]2)cc1 [Compound A64, 6-(4-tert-butyl-phenyl)-2-fluoromethyl-5H-pyrazolo[1,5-a]pyrazin-4-one]",IC50,[1],300 to 3000 nM
same,EC50,[2],300 to 3000 nM
same,IC50,[3],< 300 nM
"CC(C)(C)c1ccc(-c2cn3nc(C(F)F)cc3c(=O)[nH]2)cc1 [Compound A66, 6-(4-tert-butyl-phenyl)-2-difluoromethyl-5H-pyrazolo[1,5-a]pyrazin-4-one]",IC50,[1],300 to 3000 nM
same,EC50,[2],300 to 3000 nM
same,IC50,[3],< 300 nM
"O=c1[nH]c(-c2ccc(Br)cc2)cn2nc(C(F)(F)F)cc12 [Compound A67, 6-(4-bromo-phenyl)-2-trifluoromethyl-5H-pyrazolo[1,5-a]pyrazin-4-one]",IC50,[3],300 to 3000 nM
"CC(C)(O)c1ccc(-c2cn3nc(C(F)(F)F)cc3c(=O)[nH]2)cc1 [Compound A69, 6-[4-(1-hydroxy-1-methyl-ethyl)phenyl]-2-trifluoromethyl-5H-pyrazolo[1,5-a]pyrazin-4-one]",IC50,[1],3000 to 50000 nM
same,EC50,[2],3000 to 50000 nM
same,IC50,[3],300 to 3000 nM
"O=c1[nH]c(-c2ccc(C3CCNCC3)cc2)cn2cc(Cl)cc12 [Compound A78, 7-Chloro-3-(4-piperidin-4-yl-phenyl)-2H-pyrrolo[1,2-a]pyrazin-1-one]",EC50,[2],300 to 3000 nM
